For 27 compounds, TGI and GI50 results are on record in PubChem BioAssay (NCI).

“And” between values parts separate entries of the source, which are not always exact repeats. Equal values may be shown once.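 Exposure lasted 48 hours, with cells grown in 96-well plates and compounds tested at five concentrations. The concentration for 50% growth inhibition is given as GI50. TGI: concentration producing complete growth inhibition.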 Bounds are passed on as bounds.

Assay in all cases: DTP human tumour cell line panel, 48 h
Experiment [1] concerns MCF7 breast.
Experiment [2] concerns MDA-N.
Experiment [3] concerns T-47D breast.
Experiment [4] has as its system DMS 273 small cell lung.
Experiment [5] deals with M19-MEL melanoma.
Experiment [6] has as its system SNB-78 CNS.
Experiment [7] deals with LXFL 529 NSCLC.

As to `CC1(CC(=O)O)OC2CCCCCC2O1` (stereo not drawn) (tested in a mixture with another compound), the TGI in experiment [1], in experiment [2] and in experiment [3] was over 100 µM each time.
With `CCOC(=O)c1[nH]c2c(c1C)-c1[nH]c(=O)c(S(=O)(=O)c3ccccc3)cc1SC2`, in experiment [1], the GI50 is 40.4 µM and the TGI is over 100 µM. In addition, in experiment [3], the GI50 was 15.4 µM and the TGI is 58.9 µM.
On to `CC[C@@]1(OC(=O)CN)C(=O)OCc2c1cc1n(c2=O)Cc2cc3cc(N)ccc3nc2-1`, for which the 50% growth inhibitory concentration (GI50) in experiment [1] is under 0.01 µM; in experiment [2], 0.0772 µM; in experiment [3] it was under 0.0359 µM. Moreover, the concentration for total growth inhibition (TGI) in experiment [1] is over 100 µM; in experiment [2], 1.09 µM; in experiment [3], over 100 µM.
The compound `O=C1[C@H]2C(c3ccccc3)=NN(C(=O)c3ccccc3)[C@H]2C(=O)N1c1ccccc1` yielded a TGI in experiment [4] of over 100 µM.
With `Cc1ccc(NCSc2ccc(Cl)cc2)cc1`, the GI50 was over 100 µM in experiment [1] and 9.55 µM in experiment [3]. For the same compound, the TGI in experiment [1] and in experiment [3] was over 100 µM throughout.
Regarding `CC1Cc2c(N(C)C)ncnc2N(C)c2ccc(Cl)cc21` (stereo not drawn), the GI50 is 1.51 µM in experiment [1] and 6.56 µM in experiment [3]. For the same compound, the TGI in experiment [1] and in experiment [3] was over 100 µM each time.
In the case of `COc1cc(C2C3=C(COC3=O)N(CCO)c3cc4c(cc32)CCC4)cc(OC)c1O` (stereo not drawn), in experiment [1], the GI50 was 0.107 µM and the TGI is over 21.4 µM. Moreover, in experiment [3], the GI50 was 0.141 µM and the TGI was over 32.5 µM.
Regarding `CO[C@H]1C=C[C@]23c4cc5c(cc4CN(CC2O)[C@@H]3C1)OCO5` (stereo partly drawn), the values for the TGI in experiment [2] and in experiment [3] were 64.8 µM and 18.2 µM, respectively.
`Cc1nn(-c2ccccc2)c2c1C1C(=C(c3ccc(Cl)cc3)N2)C(=O)Nc2ccccc21` (stereo not drawn): in experiment [1], the GI50 was 3.16 µM and the TGI is over 100 µM. Moreover, in experiment [3], the GI50 was 4.33 µM and the TGI came out at 38.5 µM.
For `Cc1ccc(C2=Nc3c(N)ncnc3NC(c3cccc(Nc4ccnc5cc(C(F)(F)F)ccc45)c3)C2)cc1` (stereo not drawn), in that order: 2.41 µM, 11.5 µM, 4.45 µM and over 100 µM.
For the compound `Cc1ccc([P+](Cc2ccc([N+](=O)[O-])cc2)(c2ccc(C)cc2)c2ccc(C)cc2)cc1`, in experiment [1], the GI50 was 2.72 µM and the TGI was determined as 12.6 µM.
On to `CCOC(=O)/C=C1\Nc2ccccc2C(c2ccccc2)=NC1OC(C)=O` (stereo not drawn), for which the TGI in experiment [4], in experiment [5], in experiment [6] and in experiment [7] was over 100 µM each time.
Regarding `CCC1OCCN1C(C)C` (stereo not drawn), the concentration for total growth inhibition (TGI) in experiment [4], in experiment [5], in experiment [6] and in experiment [7] was over 100 µM in each case.
With `CC(C)(C)n1cc(-c2ccnc(NCCNS(=O)(=O)c3ccc(Br)cc3)c2)c(-c2cccc(O)c2)n1`, in experiment [1], the GI50 was 1.48 µM and the TGI was determined as 3.7 µM. Further, in experiment [3], the GI50 was 1.65 µM and the TGI was 5.44 µM.
As for `CC(CC(=O)O)(CC(=O)O)C(=O)O`, the TGI in experiment [1], in experiment [2] and in experiment [3] was over 100 µM throughout.
Take `COc1ccc(C2=CC(c3cc(OC)c(OC)c(OC)c3)n3ncnc3N2)cc1` (stereo not drawn): in experiment [1], the GI50 is 0.0399 µM and the TGI is 13.7 µM.
Consider `Oc1cccc(-c2nc3ccccc3s2)c1`, for which the TGI is over 100 µM in experiment [1], 98.7 µM in experiment [2] and 56.8 µM in experiment [3].
With `Cn1c(=O)n(-c2ccc(C(C)(C)C#N)cc2)c2c3cc(-c4cnc5ccccc5c4)ccc3ncc21`, in experiment [1], the 50% growth inhibitory concentration (GI50) is < 0.01 µM and 0.00562 µM; the TGI is 12.2 µM and > 5.84 µM and > 100 µM. In addition, in experiment [3], the GI50 was < 0.01 µM and 0.0141 µM; the concentration for total growth inhibition (TGI) was 0.0488 µM and 0.0817 µM.
Take `COC(=O)c1c(C)oc2ccc(OC(C)=O)cc12`: the TGI in experiment [4], in experiment [5] and in experiment [6] was over 100 µM in each case.
For the compound `CC1(C)N=C(N)N=C(N)N1c1ccc(OCC(=O)Nc2cccc(S(=O)(=O)F)c2)c(Cl)c1`, the TGI is over 43.5 µM in experiment [1] and over 100 µM in experiment [3].
For the compound `COc1cccc(-c2nn(-c3ccccc3)cc2-c2ccnc(NCCNC(=O)Nc3ccc(Cl)c(Cl)c3)c2)c1`, in experiment [1], the GI50 was 2.46 µM and the TGI is 11.7 µM. Also, in experiment [3], the GI50 is 3.85 µM and the TGI worked out at 24.7 µM.
For `O=C(/C=C/N1CCN(c2cccc(C(F)(F)F)c2)CC1)c1ccc(Cl)cc1Cl`, in that order: 24.7 µM, 60.7 µM, 82.8 µM and over 100 µM.
As to `CC(C)OP(=O)(OC(C)C)C(N(C)C)P(=O)(OC(C)C)OC(C)C.[Cl][Sn]([Cl])([Cl])[c]1ccccc1`, the GI50 in experiment [4] was 2.67 µM; in experiment [5] it was 2.61 µM; in experiment [6] it was 8.01 µM. For the same compound, the TGI was 10.6 µM in experiment [4], 6.79 µM in experiment [5] and over 100 µM in experiment [6].
In the case of `CC[C@]12C=CCN3CC[C@]4(C(=C(C(=O)OC)C1)Nc1cc(O)ccc14)[C@@H]32`, in experiment [1], the GI50 was 19.1 µM and the TGI turned out to be 45.5 µM. For the same compound, in experiment [3], the GI50 is 22.4 µM and the TGI is 87.7 µM.
Take `COc1cc2c3c(c1OC)-c1ccccc1C(C(OC(C)=O)c1ccccc1)C3N(C)CC2` (stereo not drawn): the TGI in experiment [4], in experiment [5], in experiment [6] and in experiment [7] was over 100 µM each time.
Take `Nc1ncnc2occ(-c3ccc(NC(=O)Nc4cc(C(F)(F)F)cc(C(F)(F)F)c4)cc3)c12`: in experiment [1], the GI50 was 3.19 µM and the concentration for total growth inhibition (TGI) amounted to 6.96 µM. In experiment [3], the GI50 was 3.27 µM and the total growth inhibition concentration (TGI) is 7.54 µM.
Consider `CCOP(=O)(OCC)/C(C#N)=C\c1cccc2ccccc12`, for which the TGI in experiment [1], in experiment [2], in experiment [5], in experiment [6] and in experiment [3] was over 100 µM throughout.
